# Measurements: patent EP0060776B1, “Medicaments for the treatment of obesity and hyperlipoidemia” (SOMACHIM S.A., priority 1981, dated 1982)
# Experiments:
# [1] = Acute oral toxicity (DL50) in the rat; conditions: in vivo
# Source text: La toxicité de l'acide 3,5-diiodo-3'-isopropyt-thyroacétique a également été examinée sur le rat.
# [2] = 30-day repeated-dose toxicity in rats at 1/5 of the DL50; assay type: in vivo
# Source text: Par ailleurs, le 1/5 de la dose L 50 a été administré à 20 rats durant 30 jours, 7 jours sur 7. Aucune mort n'a été constatée. […] La formule sanguine est normale.
# [3] = Magnusson and Kligman sensitisation test; assay type: in vivo, cobaye; conditions: guinea pig
# Source text: De plus, un test de Manusson et Kligman a été pratiqué chez le cobaye. Ce test prédictif s'est révélé négatif, c'est-à-dire qu'aucun animal n'a montré une quelconque sensibilisation d'ordre allergique au produit.
# [4] = Weekly food consumption of genetically obese and normal Zucker rats; assay type: in vivo, rattes Zucker; parameters: Consommation d'aliments: unit not given here; conditions: for Consommation d'aliments: weekly, treated
# Source text: (§1) Les animaux employés sont des rattes Zucker âgées de 7 à 8 semaines au début de l'expérimentation. Les animaux ont été placés en cages individuelles et recevaient ad libitum une alimentation équilibrée et vitaminée spéciale pour rats, identique pour tous les lots. La boisson était également présentée ad libitum. Les lots d'animaux ont été établis de telle sorte que le poids-de départ soit sensiblement identique pour les témoins et les traités, chaque lot comporte 6 animaux.
# (§2) On a administré une dose journalière de 17,5 µg (30n mol) par 100 g. de poids corporel pendant 4 semaines. Les poids moyens des animaux traités et non traités ont été notés chaque fin de semaine chez les témoins et chez les obèses. Les résultats sont rassemblés dans le tableau ci-dessous.
# Par ailleurs, la consommation hebdomadaire d'aliments a été notée et les résultats rassemblés dans le tableau ci-dessus.
# Enfin le tableau suivant rassemble pour chaque semaine l'observation du rapport : • R = (consommation hebdomadaire (CH))/(gain de poids hebdomadaire (GPH)) [formula]
# [5] = Weight gain of genetically obese and normal Zucker rats, daily gavage for 4 weeks; assay type: in vivo, rattes Zucker
# Source text: On a notamment étudié les effets de l'acide 3,5-diiodo-3'-isopropyl-thyroacétique sur la prise de poids de la ratte génétiquement obèse, par administration au moyen d'une sonde oesophagienne et en comparaison avec des rattes normales.
# as §1, §2
# [6] = 4-week oral treatment of hospitalised obese patients; assay type: in vivo, homme; conditions: for POIDS Après (J+30): 0,3 mg daily orally, 1 400 cal/j diet
# Method: Après cet essai d'autres volontaires obèses ont été traités par l'acide 3,5-dilodo-3'-isopropyl- thyroacétique à la dose journalière de 0,3 mg en 2 prises orales durant 4 semaines. La tolérance fut surveillée très attentivement (malades hospitalisés) et fut parfaite.
# Le poids des 6 patients obèses hospitalisés sous régime hypocalorique, hypoglucidique, hyperproti- dique à 1 400 cal/j et traités comme il est indiqué ci-dessus a régressé. Le tableau ci-après rassemble les résultats obtenus.
# [7] = Patch tests in humans; assay type: in vivo, homme; conditions: human
# [8] = 5-day tolerance study in obese human volunteers; assay type: in vivo, homme; conditions: 5 obese volunteers, 0,3 mg daily in 3 oral doses, 5 days
# Method: On a administré à un groupe de 5 volontaires obèses une dose journalière de 0,3 mg d'acide 3,5- dilodo-3'-isopropylthyroacétique en 3 prises orales, durant une première période de 5 jours durant lesquels la tolérance fut vérifiée.
# [9] = Blood cholesterol of the treated Zucker rats; assay type: in vivo, rattes Zucker
# Source text: as §1, §2
# La cholestérolémie a été dosée chez les animaux dont les courbes pondérales et de consommation alimentaire ont été rapportées ci-dessus. Les résultats sont les suivants : • Rats normaux non traités 0,9-1 g par litre (2,5 mmol par l.) • Rats normaux traités (4 semaines) 0,9-1 g par litre (2,5 mmol par 1.) • Rats génétiquement obèses non traités • 1,7-1,8 (X = 1,75) g par litre (4,51 mmol par litre) • Rats génétiquement obèses traités (4 semaines) • 1,1 g par litre (2,87 mmol par litre)
# [10] = 6 obese patients, 0,3 mg daily, 4 weeks
smiles,measurement,setting,value
"CC(C)c1cc(Oc2c(I)cc(CC(=O)O)cc2I)ccc1O [acide 3,5-diiodo-3'-isopropyl-thyroacétique]",observation of behaviour and growth,[1],aucun trouble de comportement ni de croissance
same,LD50 at 336 h,"[1]; po, solution by oesophageal tube, 12 animals",5.4 mg/kg
same,mortality,"[2]; 20 rats, 1/5 of the DL50 daily for 30 days",Aucune mort
same,"autopsy, macroscopic state of the organs","[2]; rat, in vivo",aucun organe n'était macroscopiquement modifié à l'exception d'une légère pâleur des thyroïdes
same,"composantes biochimiques principales, glycémie, uricémie, urémie","[2]; rat, in vivo",évoluent dans les limites habituelles à l'espèce
same,formule sanguine,"[2]; rat, in vivo",normale
same,"histologie du foie, rate, rein, thyroïde, surénales","[2]; rat, in vivo",n'a rien révélé d'anormal
same,sensibilisation d'ordre allergique,[3],négatif
same,consommation alimentaire,[4]; normal animals,ne modifie pas la consommation alimentaire
same,consommation alimentaire,[4]; obese animals,réduit celle des animaux obèses
same,effet anorexigène,"[4]; rat, concluded from the ratio weekly consumption / weekly weight gain",aucun effet anorexigène
same,Consommation d'aliments,"[4]; normal Zucker rats (Témoins), day 7, initial mean consumption 78",83
same,Consommation d'aliments,"[4]; normal Zucker rats (Témoins), day 14, initial mean consumption 78",112
same,Consommation d'aliments,"[4]; normal Zucker rats (Témoins), day 21, initial mean consumption 78",120
same,Consommation d'aliments,"[4]; normal Zucker rats (Témoins), day 28, initial mean consumption 78",118
same,Consommation d'aliments,"[4]; obese Zucker rats (Obèses), day 7, initial mean consumption 118",124
same,Consommation d'aliments,"[4]; obese Zucker rats (Obèses), day 14, initial mean consumption 118",131
same,Consommation d'aliments,"[4]; obese Zucker rats (Obèses), day 21, initial mean consumption 118",148
same,Consommation d'aliments,"[4]; obese Zucker rats (Obèses), day 28, initial mean consumption 118",142
same,Poids moyens,"[5]; genetically obese Zucker rats (Obèses), treated, 17,5 µg per 100 g daily, day 7, initial mean weight 135 g",148 g
same,Poids moyens,"[5]; genetically obese Zucker rats (Obèses), treated, 17,5 µg per 100 g daily, day 14, initial mean weight 135 g",168 g
same,Poids moyens,"[5]; genetically obese Zucker rats (Obèses), treated, 17,5 µg per 100 g daily, day 21, initial mean weight 135 g",190 g
same,Poids moyens,"[5]; genetically obese Zucker rats (Obèses), treated, 17,5 µg per 100 g daily, day 28, initial mean weight 135 g",206 g
same,prise de poids,"[5]; genetically obese Zucker rats, 17,5 µg per 100 g body weight",ralentit la prise de poids
same,Poids moyens,"[5]; normal Zucker rats (Témoins), treated, 17,5 µg per 100 g body weight daily by gavage, day 7, initial mean weight 102 g",119 g
same,Poids moyens,"[5]; normal Zucker rats (Témoins), treated, 17,5 µg per 100 g daily, day 14, initial mean weight 102 g",137 g
same,Poids moyens,"[5]; normal Zucker rats (Témoins), treated, 17,5 µg per 100 g daily, day 21, initial mean weight 102 g",152 g
same,Poids moyens,"[5]; normal Zucker rats (Témoins), treated, 17,5 µg per 100 g daily, day 28, initial mean weight 102 g",163 g
same,croissance,"[5]; normal Zucker rats, 17,5 µg per 100 g body weight",ne modifie pas significativement la croissance
same,taux de cholestérol sanguin,[6]; [10],notablement été abaissé
same,"transaminases, phosphatases, uricémie, créatinurie",[6]; [10],aucune modification
same,glycémie,"[6]; 6 obese patients, 4 weeks, the patent attributes the effect probably to the diet",a diminué également de manière significative
same,poids,"[6]; obese humans, statement in words",baisse de poids très substantielle
same,POIDS Après (J+30),"[6]; obese patient 1, before (J-0) 115",107
same,POIDS Après (J+30),"[6]; obese patient 2, before (J-0) 108",101
same,POIDS Après (J+30),"[6]; obese patient 3, before (J-0) 97",89
same,POIDS Après (J+30),"[6]; obese patient 4, before (J-0) 103",93
same,POIDS Après (J+30),"[6]; obese patient 5, before (J-0) 85",81
same,POIDS Après (J+30),"[6]; obese patient 6, before (J-0) 111",104
same,tolérance,"[6]; obese volunteers, hospitalised, 0,3 mg daily in 2 oral doses, 4 weeks",parfaite
same,patchtests,[7],n'était pas allergogène
same,"tolérance: tension artérielle, rythme cardiaque, transaminases et phosphatases, glucose, urée sanguine, créatinine urinaire",[8],aucun paramètre n'a subi de modification
same,taux de cholestérol,[9]; animals with normal cholesterol level,n'a pas d'effet
same,cholestérolémie,"[9]; genetically obese rats treated 4 weeks, untreated obese rats 1,7-1,8","1,1 g par litre"
same,cholestérolémie,"[9]; genetically obese rats treated 4 weeks, untreated obese rats 4,51","2,87 mmol par litre"
same,taux de cholestérol,[9]; hypercholesterolemic animals,baisser sensiblement
same,cholestérolémie,"[9]; normal rats treated 4 weeks, untreated normal rats 0,9-1","0,9-1 g par litre"
same,cholestérolémie,"[9]; normal rats treated 4 weeks, untreated normal rats 2,5","2,5 mmol par 1."
